Converted amounts (≈) assume the structure as drawn.

One assay deals with P388. The assay can be described thus: Cytotoxicity against mouse P388 cells by MTT assay. It counts as functional, cell-based.
Assay [1] in a line: Cytotoxicity against human CNE2 cells by MTT assay. It counts as functional, cell-based. The settings on record: CNE-2.

For orientation: IC50 means the concentration at which inhibition is half-maximal. Read a high IC50 as weaker potency in that assay. On to `COC(=O)[C@@]12CC(=O)[C@@H](C(C)C)CC(=O)[C@@H](C)CCC[C@@H](C)CC(=O)[C@@H]1CC(C)=C1[C@@H]3C[C@@](C)(O)[C@H](CC[C@@H](C)C(=O)CC/C(C)=C/[C@H]12)O3` [METHYL TORTUOATE B], for which the results for the IC50 (with P388; in assay [1]) were 5 µg/mL (≈ 7.32 µM) and 24.7 µg/mL (≈ 36.2 µM), respectively.
Consider `COC(=O)[C@@]12CC(=O)[C@@H](C(C)C)CC(=O)[C@@H](C)CCC[C@@H](C)CC(=O)[C@@H]1CC(C)=C1[C@H]2/C=C(\C)CC[C@H]2O[C@@H](CC=C2C)[C@](C)(O)C[C@@H]1O` [METHYL TORTUOATE A], for which the results for the IC50 (with P388; in assay [1]) were 3.5 µg/mL (≈ 5.12 µM) and 22.7 µg/mL (≈ 33.2 µM), respectively.

For the origin of these results see ChEMBL document CHEMBL1148954, “Two new cytotoxic tetracyclic tetraterpenoids from the soft coral Sarcophyton tortuosum” (J Nat Prod, 2004).
